Assay [1] addresses fixed activated platelets (Homo sapiens, UniProt P05106+P08514). Kind of assay: Platelet Aggregation Assay (fibrinogen-mediated aggregation of fixed-activated platelets). The format is cell-based. The conditions noted are these: for IC50: fixed activated platelets, human fibrinogen 250 μg/ml, read-out: Inhibition of Fibrinogen Mediated Platelet Aggregation IC50; for inhibition at 25 µM: read-out: Inhibition of Fibrinogen Mediated Platelet Aggregation % inhibition at 25 μM; for inhibition at 100 µM: read-out: Inhibition of Fibrinogen Mediated Platelet Aggregation % inhibition at 100 μM. As for the experimental part:
PLATELET AGGREGATION ASSAY
Preparation of Fixed-Activated Platelets
To the activated platelets is added paraformaldehyde to a final concentration of 0.50% and this incubated at room temperature for 30 minutes. The fixed activated platelets are then collected by centrifugation at 650×g for 15 minutes.
Platelet Aggregation Assay
The fixed activated platelets are incubated with a selected dose of the compound to be tested for platelet aggregation inhibition for one minute and aggregation initiated by addition of human fibrinogen to a final concentration of 250 μg/ml. A platelet aggregation profiler Model PAP-4 is used to record the platelet aggregation.

Assay [2] deals with thrombin-stimulated platelets (Homo sapiens, UniProt P05106+P08514). Kind of assay: Fibrinogen-Binding Assay (125I-fibrinogen binding to platelets). Particulars: for IC50: 125I-fibrinogen 0.176 μmol/liter, thrombin-stimulated platelets, read-out: Inhibition of 125I-Fibrinogen Binding to Platelets IC50. The method, then:
Platelets are washed free of plasma constituents by the albumin density-gradient technique of Walsh, P. N., et al., Br. J. Haematol. […] After these additions, the final platelet count in the mixture is 1×10^11 /liter. After incubation for an additional 30 minutes at 22°-25° C., bound and free ligand are separated by centrifuging 50 μl of the mixture through 300 μl of 20% sucrose at 12,000×g for 4 minutes. The platelet pellet is then separated from the rest of the mixture to determine platelet-bound radioactivity. Nonspecific binding is measured in mixtures containing an excess of unlabeled ligand. […] The IC50 is derived by plotting residual fibrinogen binding against the logarithm of the sample compound's concentration.

This passage reports IC50 and inhibition results from patent US5332726A, “Antithrombotic peptides and pseudopeptides” (Rhone-Poulenc Rorer Pharmaceuticals Inc., priority 1992, dated 1994).

Each structure is given as a SMILES string. Non-standard residues stand in square brackets, D forms with d. Residues, ends and D or L forms follow the SMILES beside them. Orn = NCCC[C@H](N)C(=O)O Some results are limits rather than exact numbers.

Sequence of thrombin-stimulated platelets (P08514 32-1039): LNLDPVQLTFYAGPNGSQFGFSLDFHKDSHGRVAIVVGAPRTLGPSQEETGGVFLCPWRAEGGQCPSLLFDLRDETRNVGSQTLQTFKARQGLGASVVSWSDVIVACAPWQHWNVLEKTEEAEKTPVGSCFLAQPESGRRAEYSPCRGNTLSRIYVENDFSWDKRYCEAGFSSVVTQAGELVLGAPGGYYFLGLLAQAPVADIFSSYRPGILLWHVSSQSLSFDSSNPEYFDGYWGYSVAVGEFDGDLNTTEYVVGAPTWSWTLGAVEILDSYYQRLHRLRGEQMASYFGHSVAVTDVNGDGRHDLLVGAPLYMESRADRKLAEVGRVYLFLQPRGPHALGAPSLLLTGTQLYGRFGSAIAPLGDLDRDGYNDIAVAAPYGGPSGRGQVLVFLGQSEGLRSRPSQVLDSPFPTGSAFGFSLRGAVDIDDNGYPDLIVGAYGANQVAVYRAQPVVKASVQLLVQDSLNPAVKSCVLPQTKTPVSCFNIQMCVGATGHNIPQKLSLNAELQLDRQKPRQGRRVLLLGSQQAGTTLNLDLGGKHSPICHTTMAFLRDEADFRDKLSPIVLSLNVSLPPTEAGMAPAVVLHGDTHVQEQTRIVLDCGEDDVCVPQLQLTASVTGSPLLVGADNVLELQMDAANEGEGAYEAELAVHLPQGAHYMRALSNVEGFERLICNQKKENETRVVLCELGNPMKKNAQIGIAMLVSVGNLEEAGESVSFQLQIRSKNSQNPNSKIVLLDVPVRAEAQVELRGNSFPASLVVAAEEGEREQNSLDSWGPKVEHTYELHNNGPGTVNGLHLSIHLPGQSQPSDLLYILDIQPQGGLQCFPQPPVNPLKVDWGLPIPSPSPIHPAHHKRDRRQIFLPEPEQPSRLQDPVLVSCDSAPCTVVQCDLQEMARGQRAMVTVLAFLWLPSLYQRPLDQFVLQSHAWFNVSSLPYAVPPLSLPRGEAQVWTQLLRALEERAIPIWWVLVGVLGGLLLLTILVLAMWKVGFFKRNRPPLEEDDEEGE
Sequence of thrombin-stimulated platelets (P05106 27-788): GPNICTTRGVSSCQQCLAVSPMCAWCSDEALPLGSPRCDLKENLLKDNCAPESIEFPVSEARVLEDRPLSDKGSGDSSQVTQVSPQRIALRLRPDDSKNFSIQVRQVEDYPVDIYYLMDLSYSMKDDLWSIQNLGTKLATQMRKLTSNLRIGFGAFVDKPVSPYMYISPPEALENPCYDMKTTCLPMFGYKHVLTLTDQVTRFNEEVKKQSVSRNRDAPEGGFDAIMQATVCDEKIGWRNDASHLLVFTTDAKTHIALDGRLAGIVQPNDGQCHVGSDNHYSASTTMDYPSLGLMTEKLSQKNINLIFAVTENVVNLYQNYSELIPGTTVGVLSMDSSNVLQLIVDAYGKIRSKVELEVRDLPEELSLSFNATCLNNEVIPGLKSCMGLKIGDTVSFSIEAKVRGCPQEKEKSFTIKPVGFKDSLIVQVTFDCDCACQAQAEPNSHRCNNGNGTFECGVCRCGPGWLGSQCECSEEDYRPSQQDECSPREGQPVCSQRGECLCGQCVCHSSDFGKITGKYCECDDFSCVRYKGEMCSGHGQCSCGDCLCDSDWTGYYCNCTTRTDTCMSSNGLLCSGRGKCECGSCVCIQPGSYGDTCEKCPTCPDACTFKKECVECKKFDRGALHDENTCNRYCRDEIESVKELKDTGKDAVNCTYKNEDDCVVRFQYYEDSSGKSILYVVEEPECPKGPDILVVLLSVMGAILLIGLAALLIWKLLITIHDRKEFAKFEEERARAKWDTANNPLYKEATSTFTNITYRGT
Sequence of fixed activated platelets (P08514 32-1039): as the sequence (P08514 32-1039) above
Sequence of fixed activated platelets (P05106 27-788): as the sequence (P05106 27-788) above

For orientation: IC50 means the concentration that gives 50% inhibition. Consider `N=C(N)NCCCCCCCC(=O)N[C@@H](CC(=O)O)C(=O)N[C@@H](Cc1ccccc1)C(=O)O` [8-Guanidinooctanoyl-L-aspartyl-L-phenyl-alanine], for which the IC50 in assay [1] turned out to be 0.69 µM; in assay [2], 0.2 µM. In assay [1], the inhibition at 25 µM came out at 96%.

On to `N=C(N)NCCCCCCCC(=O)N[C@@H](CC(=O)O)C(=O)N[C@@H](CCCNC(=N)N)C(=O)O` [8-Guanidinooctanoyl-L-aspartyl-arginine], for which the values for the IC50 in assay [1] and in assay [2] were 2.2 µM and 0.33 µM, respectively. The inhibition at 25 µM in assay [1] is 94%.

Regarding `CCc1nccn1CCCCCC(=O)N(C)CC(=O)N[C@@H](CC(=O)O)C(=O)N[C@H](C(=O)O)C(C)C` [6-(2-Ethylimidazol-1-yl)hexanoyl-sarcosyl-L-aspartyl-L-valine], the IC50 in assay [1] was 4.9 µM; in assay [2] it was 0.313 µM. The inhibition at 25 µM in assay [1] amounted to 89%.

As to `CCN(CC(=O)N[C@@H](CC(=O)O)C(=O)N[C@@H](Cc1ccc(O)cc1)C(=O)O)C(=O)CCCCCNC(=N)N` [6-Guanidinohexanoyl-N-(ethyl)glycyl-L-aspartyl-L-tyrosine], in assay [1], the IC50 worked out at 1.25 µM and the inhibition at 25 µM worked out at 95%. Further, the IC50 in assay [2] was 0.18 µM.

For the compound `CC(C)[C@H](NC(=O)[C@H](CC(=O)O)NC(=O)CCCCCCCCCCNC(=N)N)C(=O)O` [11-guanidinoundecanoyl-L-aspartyl-L-valine], the inhibition at 25 µM in assay [1] was 36%. In addition, the IC50 in assay [2] is 17 µM.

In the case of `CC(C)CNC(=O)[C@H](CC(=O)O)NC(=O)CNC(=O)[C@@H](N)CCCNC(=N)N` [L-arginylglycyl-L-aspartyl-α-isobutylamide], in assay [1], the IC50 amounted to 3.6 µM and the inhibition at 100 µM was 89%. Further, the IC50 in assay [2] turned out to be 26.5 µM.

For `CC(C)[C@H](NC(=O)[C@H](CC(=O)O)NC(=O)CNC(=O)[C@@H](N)CCCN)C(=O)O` [L-ornithylglycyl-L-aspartyl-L-valine] (H-[Orn]GDV-OH), in assay [1], the IC50 turned out to be 15 µM and the inhibition at 100 µM was found to be 80%. Moreover, the inhibition at 50 µg/mL in assay [2] (read-out: Inhibition of 125I-Fibrinogen Binding to Platelets: Inhibited <50% at 50 μg/ml) was less than 50%.

For `CC(C)[C@H](NC(=O)[C@H](CC(=O)O)NC(=O)CN(C)C(=O)CCCCNC(=N)N)C(=O)O` [5-Guanidinovaleroyl-sarcosyl-L-aspartyl-L-valine], in assay [1], the IC50 worked out at 0.52 µM and the inhibition at 25 µM worked out at 94%. The IC50 in assay [2] stood at 1 µM.

Turning to `CC(C)[C@H](NC(=O)[C@H](CC(=O)O)NC(=O)[C@@H](N)CCCNC(=N)N)C(=O)O` [L-arginyl-L-aspartyl-L-valine] (H-Arg-Asp-Val-OH), in assay [1], the IC50 was 100 µM and the inhibition at 100 µM was found to be 49%. Moreover, the IC50 in assay [2] is greater than 200 µM.

Consider `CCN(CC(=O)N[C@@H](CC(=O)O)C(=O)N[C@H](C(=O)O)C(C)C)C(=O)CCCNC(=N)N` [4-Guanidinobutanoyl-N-(ethyl)glycyl-L-aspartyl-L-valine], for which, in assay [1], the half-inhibitory concentration (IC50) was found to be 2.7 µM and the inhibition at 25 µM turned out to be 94%. Besides, the IC50 in assay [2] amounted to 0.45 µM.

Take `N=C(N)NCCCCCCCC(=O)N[C@@H](CC(=O)O)C(=O)N[C@@H](CCCCN)C(=O)O` [8-Guanidinooctanoyl-L-aspartyl-L-lysine]: the IC50 in assay [1] amounted to 1.6 µM; in assay [2], 0.78 µM. Moreover, in assay [1], the inhibition at 25 µM was found to be 93%.

As for `N=C(N)NCCCCCCCCC(=O)N[C@@H](CC(=O)O)C(=O)N[C@@H](Cc1ccccc1)C(=O)N[C@@H](CCCNC(=N)N)C(=O)O` [9-Guanidinononanoyl-L-aspartyl-L-phenylalanine-L-arginine], the half-inhibitory concentration (IC50) in assay [1] is 0.32 µM; in assay [2], 6 µM. Also, the inhibition at 25 µM in assay [1] was found to be 98%.

Take `CN(CC(=O)N[C@@H](CC(=O)O)C(=O)N[C@@H](Cc1ccc(O)cc1)C(=O)O)C(=O)CCCCCNC(=N)N` [6-Guanidinohexanoyl-sarcosyl-L-aspartyl-L-tyrosine]: in assay [1], the IC50 came out at 7.3 µM and the inhibition at 25 µM was found to be 94%. The IC50 in assay [2] is 3.6 µM.

For the compound `CC(C)[C@H](NC(=O)[C@H](CC(=O)O)NC(=O)CN(C(=O)CCCCCNC(=N)N)C(C)C)C(=O)O` [6-Guanidinohexanoyl-N-(2-propyl)glycyl-L-aspartyl-L-valine], in assay [1], the IC50 stood at 8.6 µM and the inhibition at 25 µM was determined as 83%. In assay [2], the IC50 was 1.1 µM.

As to `CC(C)[C@H](NC(=O)[C@H](CC(=O)O)NC(=O)CNC(=O)CCCCCCNC(=N)N)C(=O)O` [7-Guanidinoheptanoyl-glycyl-L-aspartyl-L-valine], the half-maximal inhibitory concentration (IC50) in assay [1] is 21 µM; in assay [2] it was 6.4 µM. Further, the inhibition at 25 µM in assay [1] was found to be 56%.

For `CCN(CC(=O)N[C@@H](CC(=O)O)C(=O)N[C@H](C(=O)O)C(C)C)C(=O)CCCCNC(=N)N` [5-Guanidinopentanoyl-N-ethylglycyl-L-aspartyl-L-valine], the half-maximal inhibitory concentration (IC50) is 0.63 µM in assay [1] and 0.04 µM in assay [2]. Also, in assay [1], the inhibition at 25 µM turned out to be 91%.

Regarding `CC[C@H](C)[C@H](NC(=O)[C@H](CC(=O)O)NC(=O)CCCCCCCCNC(=N)N)C(=O)O` [9-Guanidinononanoyl-L-aspartyl-L-isoleucine], in assay [1], the IC50 is 4.2 µM and the inhibition at 25 µM is 93%. In addition, the IC50 in assay [2] is 0.38 µM.

Take `CC(C)[C@H](NC(=O)CNC(=O)CNC(=O)[C@@H](N)CCCNC(=N)N)C(=O)O` [L-arginyl glycyl glycyl-L-valine] (H-RGGV-OH): in assay [1], the IC50 was greater than 100 µM and the inhibition at 100 µM stood at 10%. For the same compound, the IC50 in assay [2] was greater than 200 µM.

As to `CC(C)[C@H](NC(=O)[C@H](CC(=O)O)NC(=O)CCCCCCCCN)C(=O)O` [9-aminononanoyl-L-aspartyl-L-valine], the IC50 came out at 19.1 µM in assay [1] and 30 µM in assay [2]. Also, in assay [1], the inhibition at 25 µM was 10.1%.

For `CCN(CC(=O)N[C@@H](CC(=O)O)C(=O)NC(CC)(CC)C(=O)O)C(=O)CCCCCNC(=N)N` [6-Guanidinohexanoyl-N-ethyl-glycyl-L-aspartyl-2,2-diethylglycine], in assay [1], the IC50 was 11.4 µM and the inhibition at 25 µM was determined as 73%. Further, the IC50 in assay [2] came to 5 µM.

With `N=C(N)NCCCCCCCCC(=O)N[C@@H](CC(=O)O)C(=O)NC(Cc1ccccc1)(Cc1ccccc1)C(=O)O` [9-Guanidinononanoyl-L-aspartyl-α-benzylphenylalanine], in assay [1], the IC50 was greater than 25 µM and the inhibition at 25 µM was 10%. For the same compound, in assay [2], the IC50 is greater than 200 µM.

Consider `CCC(CC)(NC(=O)[C@H](CC(=O)O)NC(=O)CCCCCCCCNC(=N)N)C(=O)N[C@@H](CCCNC(=N)N)C(=O)O` [9-Guanidinononanoyl-L-aspartyl-α,α-diethyl-glycyl-L-arginine], for which, in assay [1], the IC50 was greater than 25 µM and the inhibition at 25 µM came out at 20%. Also, the IC50 in assay [2] is 40 µM.

In the case of `N=C(N)NCCCCCCCC(=O)N[C@@H](CC(=O)O)C(=O)NCCCCNC(=N)N` [8-Guanidinooctanoyl-L-aspartyl-(des-carboxy)-L-arginine], in assay [1], the IC50 was 1.9 µM and the inhibition at 25 µM was found to be 91%. For the same compound, the IC50 in assay [2] was determined as 0.99 µM.

For the compound `N=C(N)NCCCCCCCCC(=O)N[C@@H](CC(=O)O)C(=O)N[C@@H](CCCNC(=N)N)C(=O)O` [9-Guanidinononanoyl-L-aspartyl-L-arginine], in assay [1], the 50% inhibitory concentration (IC50) was determined as 0.26 µM and the inhibition at 25 µM was 97%. The IC50 in assay [2] is 0.13 µM.

As for `CC(C)[C@H](NC(=O)[C@H](CC(=O)O)NC(=O)C=CCCCCCNC(=N)N)C(=O)O` [8-Guanidinooct-2-enoyl-L-aspartyl-L-valine], in assay [1], the IC50 amounted to 0.29 µM and the inhibition at 25 µM stood at 96%. Moreover, in assay [2], the 50% inhibitory concentration (IC50) came to 0.84 µM.
